The text below walks through data of US8759309B2, “Polynucleotides that stimulate neutrophils” (Immunom Technologies, Inc., priority 2010, dated 2014).

The data set deals with neutrophils isolated from the kidneys of fathead minnows. The experiment in a line: Neutrophil oxidative (respiratory) burst, oxidation of DHR123 to rhodamine by flow cytometry. Conditions: for % of PMA (oxidative burst): PMA at 1 μg/ml = 100%, * P<0.05; for stimulation of neutrophils (qualitative): exposure of neutrophils to individual oligos and their dimer. In kind it is cell-based, Pimephales promelas. From the text: Polynucleotides that stimulate neutrophils may be identified by exposing neutrophils isolated from the kidneys of fathead minnows to one or more polynucleotides complementary to an Initiation Site of Origin of Replication. The oxidation of the non-fluorescent dihydrorhodamine 123 (DHR123) to fluorescent rhodamine (Rh 123) may be determined indirectly by determining fluorescence intensity using spectrofluorometry in a flow cytometer. Rh 123 has an absorption maximum at 507 nm and a fluorescence maximum at 529 nm. Results of fluorescence intensity for the polynucleotide of the present invention and a control may be obtained and compared. The control serves as a reference point for measuring changes in phenotype such as fluorescence intensity. A control may include a neutrophil contacted with a known neutrophil stimulator, such as phorbol myristic acetate (PMA), and/or a neutrophil not exposed to the neutrophil stimulator or the polynucleotide of the present invention. The degree or amount of fluorescent intensity of each sample may be determined at a desired time point and the values of various samples compared. For example, a similar or an increase in the fluorescence intensity level of a sample from a neutrophil exposed to a polynucleotide of the present invention relative to the fluorescence intensity level of a sample from a neutrophil exposed to a known neutrophil stimulator would be indicative of the polynucleotide being able to stimulate neutrophils. For example, an increase in the fluorescence intensity level of a sample from a neutrophil exposed to a polynucleotide of the present invention relative to the fluorescence intensity level of a sample from a control neutrophil not exposed a known neutrophil stimulator or polynucleotide of the present invention would be indicative of the polynucleotide being able to stimulate neutrophils. Other suitable assays may be used to determine neutrophil stimulation, by measuring the uptake of oxygen or destruction of bacteria, including but not limited to. Measuring the release of specific cytokines can also be used to determine neutrophil activity. See: Scapini, P., Llapinet-Vera, J., Gasperini, S., Calzetti, F., Bazzoni, F., Cassatella, M., The Neutrophil as a Cellular Source of Cytokines; Immunol. Rev. 177, 195-203.
Killing microbes by the action of myeloperoxidase requires oxygen. Therefore, measuring the transient increase in oxygen uptake—the respiratory burst—by neutrophils reflects their antimicrobial activity. The respiratory burst, therefore, can be used as an indicator of the extent of neutrophil stimulation.
Oligo A can dimerize with itself which may explain why it had less broad stimulating activity than die Oligo B. It was determined by spectrofluorometry in a flow cytometer which recorded the oxidation of the non-fluorescent dihydrorhodamine 123 (DHR123) to fluorescent rhodamine during exposure of neutrophils to the oligos. Results were compared to the degree of fluorescence of a known powerful neutrophil stimulator, phorbol myristic acetate (PMA).
The degree of stimulation by PMA at a concentration of […] represented in the accompanying graph as 100%.
Neutrophils from fathead minnows were prepared and tested by the Institute for International Cooperation in Animal Biologics, Iowa State Univ., Ames, Iowa 50011 (See: Immunomodulatory Effects of B-glucan on Neutrophil Function in Fathead Minnows, Pimephales promelas Rafinesque, 1820, Dev. and Comp. Immunol. (2006 30; 817-830), Palić, D., et al). Oligos were prepared by Oligos, Etc., Portland, Oreg. 97298).
(A flow cytometer gives signals particle by particle.)

Where “and” joins values, the source holds several entries; their conditions need not be identical. Equal entries are not always repeated. Entries after “also recorded” stand apart in the source; their conditions may differ.

In the case of “5′AAUAggUgU3′ (AAUANGUGU; ribonucleotide, lower-case positions undefined, further chemistry not given here) [Oligo A, ribonucleotide complementary to the consensus core of bacterial Initiation Sites]”, the “stimulation of neutrophils (qualitative)” value is “significant stimulation”. Moreover, the “% of PMA (oxidative burst)” value (Oligo Conc. 0.03 μg/ml) is 11.83 % of PMA. Further, the “% of PMA (oxidative burst)” value (Oligo Conc. 0.3 μg/ml) is 0 % of PMA. Further, the “% of PMA (oxidative burst)” value (Oligo Conc. 3 μg/ml) is given as 0 % of PMA. In addition, the “% of PMA (oxidative burst)” value (Oligo Conc. 30 μg/ml) is listed as 16.21 % of PMA.
Take “5′UUAUCCACA3′ (UUAUNCACA; chemistry not fully specified) [Oligo B]”: the “stimulation of neutrophils (qualitative)” value was “significant stimulation”. Further, the neutrophil destruction result (30 μg/ml) is “did not indicate neutrophil destruction”. For the setting “Oligo Conc. 0.03 μg/ml”, the “% of PMA (oxidative burst)” value is 30 % of PMA and 29.57* % of PMA. Also, the “% of PMA (oxidative burst)” value (Oligo Conc. 0.3 μg/ml) is 18.32* % of PMA. In addition, the “% of PMA (oxidative burst)” value (Oligo Conc. 3 μg/ml) is 33.02* % of PMA. For the setting “Oligo Conc. 30 μg/ml”, the “% of PMA (oxidative burst)” value was 14.93 % of PMA. Also, under “P<0.05 denoted by *”, the “oxidative burst compared with other oligos” value is “significantly higher than Oligo A at all tested concentrations; also recorded: significantly higher than mixtures of Oligos A and B at most concentrations”.
With `CCCCCCCCCCCCCC(=O)O[C@@H]1[C@@H](C)[C@@]2(O)[C@@H](C=C(CO)C[C@]3(O)C(=O)C(C)=C[C@@H]23)[C@@H]2C(C)(C)[C@]12OC(C)=O` [PMA, phorbol myristic acetate, reference compound], under “PMA at 1 μg/, set as 100%”, the “degree of stimulation (reference)” value is reported as 100%.
